Data as given in patent US20180265867A1, “NUCLEIC ACID MOLECULES WITH ENHANCED ACTIVITY” (priority 2015, published 2018).
d = 2'-deoxy (DNA); r = 2'-OH (RNA)

Tests used:
Format in all cases: cell-based, human
GAPDH [1] = experiment: GAPDH gene knockdown in MG63 cells by RT-PCR; details: for GAPDH gene knockdown: 50 nM, 24 h
Description: At 70% confluency, a day prior to transfection, the cells were seeded at a density of 35 000 cells in a 24-well cell culture plate to achieve 60-80% confluence at the day of transfection. Cell penetrating siRNAs (cpRNAs) of different lengths were transfected at 50 nM concentrations with Magnet Assisted Transfection (MATra-si) reagent for siRNAs (IBA GmbH, Göttingen, Germany) according to the manufacturers' protocols. Briefly, the siRNA was mixed with MATra-si reagent composed of supermagnetic ironoxide nanoparticles and incubated for 20 min. A complex was formed which was added to the cells to be transfected. A strong magnetic force was applied beneath the cells for 15 min. This forced the complex to be drawn into the cells by the magnetic field, and as a result the siRNA was delivered directly into the cytosol. For carrier free transfection experiments, cpRNAs were simply added to cells lines MG63, HOB, HCT116, fibroblasts and keratinocytes at 50 nM concentrations. Cells were also transfected with negative control siRNA (scrambled sequence) and cells left untreated were taken as controls. Each transfection was performed in triplicate. Post transfection, cells were incubated for 24 hours.
For the experiments involving lysosomotropic agent chloroquine (CQ), CQ was first neutralized to pH 7.4 using 1 M NaOH prior to use. MG63 cells were transfected with dT2, dT5, dT8, (dT5)2, as(dT5), and bl(dT5) siRNA in presence or absence of 100 μM CQ or using MATra-si and incubated for 24 h. Similar experiments were performed for other cpRNAs namely, dA5, dT5, dG5, (dT5)2, rA5 and dC5. For the control experiment, cells were either left untreated or transfected with negative control siRNA (scrambled sequence). Each transfection experiment was performed in triplicate.
After performing transfection experiments for 24 h, 48 h and 72 h respectively, total RNA was isolated from cells by adding 500 μl of lysis buffer (Qiagen, Germany), followed by homogenization of cell lysates using QIAshredder (Qiagen, Germany). RNA was extracted from cell lysates by RNeasy Mini Kit (Qiagen, Germany). All RNA samples were treated with DNase using TURBO-DNAfree (Ambion, USA). Agilent 2100 BioAnalyzer (Agilent Technologies, Palo Alto, Calif.) was used to confirm high quality of all RNA samples, which reports an RNA Integrity Number (RIN) that takes into account the entire electrophoretic RNA trace produced in the analysis. A RIN of greater than or equal to seven indicates the RNA is suitable for high stringency applications.
cDNA synthesis was performed in triplicate using total RNA reverse transcribed using High Capacity cDNA reverse transcription kit (Applied Biosystems, USA), with non-template control added to ensure a lack of signal in assay background. Reactions were incubated on a 96-well Applied Biosystems 9800 Fast Thermal Cycler PCR System at 37° C. for 60 min followed by 95° C. for 5 min. The real-time PCR reactions were carried out with 10 μl of 2×TaqMan® Universal PCR Master Mix, no AmpErase® UNG (Applied Biosystems, USA), 9 μl diluted cDNA, and 1 μl of TaqMan gene specific assay mix in a 20 μl final reaction volume. Reference gene beta-actin (ACTB) (Applied Biosystems, USA) was selected as control for normalization of TaqMan data. The assay included a no-template control, a standard curve of five serial dilution points (in steps of 3-fold) of cDNA mixture. Probes specific for IFN-α (Hs01022060_m1), IFN-β (Hs01077958_s1), IFN-γ (Hs00985251_m1), ACTB(Hs01060665_g1) and GAPDH (Hs02758991_g1) were purchased from Applied Biosystems. The amplification was carried out using the 7500 Fast Real-Time PCR System (Applied Biosystems, USA) using a 40-cycle program. The 7500 software automatically calculates raw Ct (cycle threshold) values. Data from samples with a Ct value equal to or below 35 were further analyzed. […]

MG63 cells = experiment: Fluorescence / confocal microscopy of cellular distribution in MG63 cells; details: fluorescently labelled, transfection reagent free
Description: Cellular uptake experiments were performed by plating cells (1×10^4) in an 8 well chamber slide. At 70% confluency, the cells were transfected with 50 nM Cy3-cpRNA and incubated at 37° C. for 24 h. Control wells were left untreated. Each transfection was performed in triplicate. […] The slides were mounted using Vectashield mounting medium containing 4′, 6-diamidino-2-phenylindole (DAPI) (Vector Labs, Burlingame, Calif.) to stain the nuclei of cells.
MG63—human osteosarcoma cells were cultured in α-MEM (Sigma-Aldrich, Haverhill, UK) medium containing 10% FBS, 1% L-Glutamine, and 1% antibiotics (PeSt) at 37° C. with 5% CO2. One day prior to the siRNA treatment, 35,000 cells were plated per each well of a 24-well plate. On the experiment day, cells were replaced with 10% heat inactivated-FBS containing α-MEM medium with 1% L-Glutamine, and 1% antibiotics (PeSt). Fluorescently (Cy3) labelled CP-siRNA and nicked CP-siRNA having GAPDH targeting sequence (final concentration: 50 nM) was given to the each well. After 24 hours the cells were washed with PBS and fixed with 4% formaldehyde for 20 mins at room temperature and then washed twice with PBS. DAPI (1 ug/ml in PBS) was added to cells for 5 mins and then washed with PBS. The cells were then visualized in Nikon TiU at 20×+1.5× and analysed with the Nikon Imaging software.

GAPDH [2] = experiment: Energy dependence of cpRNA uptake: transfection at 4° C. or 37° C., GAPDH knockdown; details: carrier-free
Description: To determine, if cellular uptake of cpRNA is an energy dependent endocytosis process, transfection experiments were performed at 4° C. and 37° C. Briefly, HCT116, HOB and MG63 cells were plated and incubated with cpRNA (dT5 or dA5 or scrambled siRNA sequence) at 4° C. or 37° C. for 4 h. After 4 h, medium was replaced with fresh medium and the cells were incubated for additional 24 h. Untreated cells were used as controls. Each transfection was performed in triplicate. […] Cellular uptake using these siRNA sequences was reduced by nearly 30% when experiments were performed at 4° C., see FIG. 4.
Next, it was investigated if the cellular uptake mechanism of cpRNA occurred by endocytosis. Transfection experiments were performed with dT5-modified cpRNA at 4° C. and found lower RNAi activity (50% gene knockdown) compared to activity at 37° C. […] Upon endocytosis, the 5-nt overhang length participated in an unknown endosomal escape mechanism that promoted cytosol transport of RNA. […] TLR-7, -8 and -9, selectively bind single-stranded DNA or RNA sequences with TLR-7 and -8 preferentially bind U and G rich sequence while TLR-9 bind CpG nt repeats. TLR3, on the other hand, nonspecifically binds the 21mer RNA duplex after dimerization of the receptor to form a 2:1 TLR3-RNA complex. […]

[3] = MG63 cells, MATra-si transfection
[4] = MG63 cells, carrier-free transfection

Row | Substance | GAPDH gene knockdown (GAPDH [1]; [3]) | GAPDH gene knockdown (GAPDH [1]; [4]) | cellular distribution (MG63 cells) | GAPDH mRNA knockdown efficiency over time (GAPDH [1]; MG63, 50 nM, 24, 48 and 72 h, cpRNA without transfection reagent vs canonical siRNA with transfection reagent) | RNAi activity among different 5-nt candidates (GAPDH [1]; MG63 cells, FIG. 2B) | enhancement in activity compared to canonical siRNA (GAPDH [1]; [3]) | GAPDH gene knockdown at 4° C. (GAPDH [2]; incubation at 4° C. for 4 h, then 24 h) | GAPDH gene knockdown at 37° C. (GAPDH [2]; incubation at 37° C.)
1 | dT2: Canonical GAPDH siRNA, sense SEQ ID NO: 1, antisense SEQ ID NO: 2, dTdT 3′-overhang on both strands (sense CCGAGCCACAUCGCUCAGATT; antisense UCUGAGCGAUGUGGCUCGGTT; sugars from the 5' end r19 d2, backbone not given here) [reference compound] | 60% | 28% | localized distribution to endosome | – | – | – | – | –
2 | dT5: GAPDH siRNA, sense SEQ ID NO: 3 with dT5 3′-overhang, antisense SEQ ID NO: 2 with dT2 (sense CCGAGCCACAUCGCUCAGATTTTT; antisense UCUGAGCGAUGUGGCUCGGTT; sense: sugars from the 5' end r19 d5, backbone not given here; antisense: sugars from the 5' end r19 d2, backbone not given here) | – | 80% | perinuclear localization within cytosol | higher gene knockdown efficiency for over 72 hrs | highest RNAi activity | 20% | 50% | 80%
